In patent US20230250433A1, “METHODS AND COMPOSITIONS FOR TREATMENT OF APC-DEFICIENT CANCER” (Board of Regents, The University of Texas System, priority 2020, published 2023):

What was measured:
APC deficient cell lines = assay: Crystal violet staining after 680C91 treatment, APC deficient cell lines; format: cell-based, human; details: 680C91 dose-dependent, 48 hr
[1] = test system: APC intact cells including CCD-841-CoN cells; assay: Crystal violet staining after 680C91 treatment, APC intact cells; format: cell-based, human; details: 680C91 dose-dependent, 48 hr, normal colon epithelial cells included
[2] = test system: APC-WT and APC-KO MC38 cell lines; assay: Crystal violet staining of APC-WT and APC-KO MC38 cell lines after 680C91; format: cell-based, mouse; details: APC-KO vs APC-WT MC38, dose-dependent, 48 hr
APC-KO MC38 cells [3] = assay: Cell death (caspase-3 assay, colony formation) with 680C91 alone and 680C91/Kyn; format: cell-based, mouse
Method: (§1) Normalized enrichment score (NES) and nominal P value are shown. […] The P value and R-square value are shown. […] Representative images of triplicate studies are shown. Scale bar, 100 μm. […] Dox food was applied at day 5 post-orthotopic injection to induce TDO2 knockdown in vivo (shControl, n=7, Dox, n=8, shAhR #1, #2, n=7). ***P<0.001. two-tailed t-test.
(§2) To assess the roles of TDO2-Kyn-AhR axis in cancer relevant processes, colony formation assays were performed using the APC-KO MC38 ishTDO2 cell lines and APC-KO MC38 shAhR cell lines. […] Thus, the TDO2-Kyn-Ahr axis supports APC-null cancer cell proliferation and survival and its tumorigenic potential.
(§3) Cell lysates were prepared with RIPA lysis buffer (Roche) with protease inhibitor […] Immunoblotting was performed following standard protocol. Antibodies were purchased from the indicated companies.
(§4) Colorectal cancer cell proliferation in vitro was assayed through colony formation. 1×10^3 cells were seeded in each well of 6-well plates and cultured for 5-7 days. At the end point, cells were fixed and stained with 0.5% crystal violet in 25% methanol for 1 hr. These studies were performed in triplicate.

[4] = test system: APC-WT and APC-KO MC38 cells; assay: Cell viability assay with STF-31; format: cell-based, mouse; details: STF-31 24 hr, dose-dependent
Raw264.7 = assay: Transwell migration assay of macrophages in conditioned media; format: cell-based, mouse; details: co-treatment with CXCL5; SX-682 1 μM, 36 hr
Method: Two-way ANOVA analysis. […] Dox food was applied at day 5 post-orthotopic injection to induce TDO2 knockdown in vivo. n=4 per group. n.s.P>0.05, *P<0.05, […], ****P<0.0001. two-tailed t-test. […] FIGS. 12D and 12E show quantification of macrophages (F4/80+; FIG. 12D) and M2 macrophages (CD206+; FIG. 12E) in tumors shown in FIG. 12C. CyTOF data analyzed by FlowJo. Data represent mean±s.d., n=3 per group. *P<0.05, **P<0.01. two-tailed t-test. […] Recombinant CXCL5 protein (50 ng) and SX-682 (1 μM) were added to harvested condition media for 36 hr. Scale bar, 100 μm. n=3 biological replicates. Quantification is shown in lower panel. n.s. P>0.05, ***P<0.001, ****P<0.0001. two-tailed t-test. […] Clondronate liposomes or control encapsome liposomes were given intraperitoneally (100 μl) at day 2 post-orthotopic injection and three times a week. […]
Macrophages (1×10^4 for Raw264.7 and BMDM) were suspended in serum-free culture medium and seeded into 24-well Transwell inserts ([…]). […] After 24 h, the migrated macrophages were fixed and stained with crystal violet (0.05%, sigma), and then counted as cells per field of view under microscope or measured as OD590 nm (expressed as migration index) after crystal violet was dissolved.

[5] = test system: APC-KO MC38 orthotopic tumors; assay: Survival of C57BL/6J mice orthotopically implanted with APC-KO MC38 cells; format: in vivo, mouse; details: 100 mg/kg twice a day by oral gavage from day 5 post-injection
Source text: (§5) Induction of shTDO2 is indicated by GFP (highlighted with arrows). X63 magnification. […] Dox food was provided at day 5 after injection to induced TDO2 knockdown in vivo (n=5 per group). […] Scale bar, 100μm. […] Dox food was applied at day 5 post-orthotopic injection to induce TDO2 knockdown in vivo (ishTDO2 APC-WT MC38, n=5, ishTDO2 APC-WT+Dox MC38 and ishTDO2 APC-KO MC38, n=6, ishTDO2 APC-KO MC38+Dox, n=7). n.s.P>0.05, **P<0.01, ***P<0.001. two-tailed t-test. […] Dox food was applied at day 5 post-orthotopic injection to induce TDO2 knockdown in vivo (n=8 per group). n.s.P>0.05, **P<0.01, ***P<0.001. two-tailed t-test. FIGS. 4N and 4O show survival curves of C57BL/6J mice orthotopically implanted with APC-WT and APC-KO MC38 cell lines ([…]) treated with TDO2 inhibitor (FIG. 4N) or Epacadostat (FIG. 4O). TDO2 inhibitor and Epacadostat treatment (100 mg/kg) was initiated at day 5 post-injection twice a day by oral gavage. n.s.P>0.05, *P<0.05, ***P<0.001. Log-rank (Mantel-Cox) test. […] Scale bars, ×10 (200 μm).
(§6) The inventors synthesized the TDO2 inhibitor PF06845102/EOS200809 (“TDO2i”), which has been documented to inhibit TDO2 activity in vivo (Schramme et al., Cancer Immunol Res. 2020 January; 8(1):32-45; incorporated herein by reference in its entirety) and administrated the drug by oral gavage to mice bearing APC-WT or APC-KO MC38 orthotopic tumors. […]

[6] = test system: APC-WT MC38 orthotopic tumors; assay: Survival of C57BL/6J mice orthotopically implanted with APC-WT MC38 cells; format: in vivo, mouse; details: 100 mg/kg twice a day by oral gavage from day 5 post-injection
Source text: as §5, §6

[7] = test system: Caco-2, DLD-1, and HCT-15 cell lines; assay: Immunoblot for TDO2 and β-catenin in CRC cell lines treated with XAV-939; format: cell-based, human; details: XAV-939 in a dose-dependent manner; WNT activity indicated by reduced level of β-catenin
Method: The motif sequence is conserved in human and mouse genes. […] GAPDH as a negative control and MYC and AXIN2 as positive controls. […] FIGS. 3K-3M show immunoblot for TDO2 and β-catenin in DLD-1 cells (FIG. 3K), Caco-2 cells (FIG. 3L), and HCT-15 cells (FIG. 3M) treated with XAV-939 in a dose-dependent manner.
Thus, APC loss induced activation of the WNT-betacatenin-TCF4 pathway resulting in TCF4-mediated upregulation of TDO2 gene transcription.
as §3

APC-KO MC38 cells [8] = assay: Colony formation assay of TDO2- or AhR-depleted cells with Kyn; format: cell-based, mouse; details: Dox/Kyn co-treatment
Method: as §1, §2, §4

iKAP cell lysates = assay: Cleaved Caspase-3 immunoblot in iKAP cells, 680C91 alone and 680C91/Kyn; format: cell-based, mouse; details: 680C91/Kyn vs 680C91 alone
Method: as §1, §2, §3

BMDM [9] = assay: RT-qPCR of M2 macrophage signature genes in BMDM; format: cell-based, mouse; details: CXCL5 50 ng, Kyn 1 mM, 24 hr
Method: Scale bars, 50μm. […] Scale bars, 100 μm. […] (isTDO2 and isTDO2/shCXCL5 #2 groups, n=7, isTDO2/shCXCL5 #3, n=8). ****P<0.0001. two-tailed t-test. […] (shControl and shCXCL5 #2 groups, n=7, shCXCL5 #3, n=8). ****P<0.0001. two-tailed t-test.
(§7) RNA was isolated from cells using Trizol (Invitrogen) following the manufacturer's instructions. RNA (200-500 ng) was first treated with RNase-free DNase I using the DNA-free kit (Ambion) to remove all genomic DNA, and then reverse-transcribed into cDNA using an ABI High Capacity cDNA RT Kit (Invitrogen). The cDNA was analyzed using real-time quantitative PCR (SYBR Green, Invitrogen) with an Applied Biosystems 7900 Sequence Detection System. Each reaction was performed in triplicate. The expression of each gene was normalized by that of mouse Actin or human GAPDH.

BMDM [10] = assay: RT-qPCR analysis of Gas6 expression in BMDM; format: cell-based, mouse; details: Kyn 1 mM, CXCL5 50 ng, Gas6 25 ng, 24 hr
Method: (§8) The red box indicates Axl. […] Six replicates per group. two-tailed t-test. *P<0.05. […] Epithelial cells are stained with EpCam and indicated by GFP. X63 magnification. […] Total flux measurement of at the end point. **P<0.01. two-tailed t-test. […] Total flux measurement of tumors was done at the end point. **P<0.01. two-tailed t-test.
To evaluate whether secreted factors from cancer cells might upregulate Gas6 expression in macrophages, BMDMs were incubated with conditioned media from MC38 cell lines. […] (FIG. 15H). Finally, to validate the roles of Gas6 in promoting tumor growth in vivo, CT26 cell lines and two independent Raw 264.7 shGas6 cell lines were co-injected into syngeneic Balb/CJ mice (FIG. 15I).
as §7

Axl = biological target: T1, Axl (Mus musculus, UniProt Q00993); assay: Immunoblots for Axl and phospho-Axl; format: cell-based; details: APC-WT and APC-KO MC38 cells; R428 0.2 μM 24 h; rmGAS6 24 h
T1 construct: immunoblots for Axl and phospho-Axl in APC-WT and APC-KO MC38 cells after R428 treatment (0.2 μM, 24 h); endogenous in cells; host or cells: MC38 mouse colorectal cancer cells, APC-WT and isogenic APC-KO
T1 sequence (Q00993 19-888): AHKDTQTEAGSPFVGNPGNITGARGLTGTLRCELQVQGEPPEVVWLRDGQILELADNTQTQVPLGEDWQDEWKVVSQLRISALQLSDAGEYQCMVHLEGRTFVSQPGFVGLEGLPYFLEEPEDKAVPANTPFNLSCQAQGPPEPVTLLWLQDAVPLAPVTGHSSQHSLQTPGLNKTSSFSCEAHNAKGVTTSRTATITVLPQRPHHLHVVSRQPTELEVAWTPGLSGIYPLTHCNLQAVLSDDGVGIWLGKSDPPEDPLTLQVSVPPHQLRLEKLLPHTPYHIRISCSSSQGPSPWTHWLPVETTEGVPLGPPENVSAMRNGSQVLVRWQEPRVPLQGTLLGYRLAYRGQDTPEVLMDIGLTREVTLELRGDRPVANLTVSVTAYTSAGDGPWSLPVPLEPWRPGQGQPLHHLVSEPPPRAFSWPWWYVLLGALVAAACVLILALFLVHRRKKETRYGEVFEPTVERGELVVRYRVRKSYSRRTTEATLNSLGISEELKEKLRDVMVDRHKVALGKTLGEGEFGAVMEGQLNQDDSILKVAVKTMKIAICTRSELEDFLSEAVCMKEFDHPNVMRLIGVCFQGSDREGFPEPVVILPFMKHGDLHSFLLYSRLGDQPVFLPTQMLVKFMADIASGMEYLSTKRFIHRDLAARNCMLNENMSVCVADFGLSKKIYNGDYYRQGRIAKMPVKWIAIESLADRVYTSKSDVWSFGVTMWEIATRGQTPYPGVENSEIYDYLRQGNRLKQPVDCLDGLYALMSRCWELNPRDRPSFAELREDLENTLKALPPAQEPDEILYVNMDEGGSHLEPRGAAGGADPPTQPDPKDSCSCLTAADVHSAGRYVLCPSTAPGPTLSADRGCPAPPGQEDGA
Source text: as §8
(§9) Gas6 is a ligand of Axl and is secreted mainly by tumor-associated macrophages in the TME (Loges et al., 2010), raising the possibility that macrophage-derived Gas6 might activate Axl to support the growth of APC-deficient cancer cells.
as §3

[11] = test system: LS180 and HT-29 cell lines; assay: Colony formation assay with Gas6 and R428; format: cell-based, human; details: Gas6 25 ng, 36 hr
Source text: as §8, §9, §4

For `Fc1ccc2c(/C=C/c3cccnc3)c[nH]c2c1` [680C91], the growth and survival (APC deficient cell lines) was “impaired the growth and survival”, the growth and survival [1] was “but not APC intact cells” and the “sensitivity of APC depleted cells to TDO2 inhibition” value [2] was “higher sensitivity to TDO2 inhibition”. The “cell death indicated by caspase-3 assay” value (APC-KO MC38 cells [3]; 680C91 alone) was “increased cell death”.
For `CC(C)(C)c1ccc(S(=O)(=O)NCc2ccc(C(=O)Nc3cccnc3)cc2)cc1` [STF-31], the “sensitivity of APC-KO vs APC-WT MC38 cells” value [4] was “higher sensitivity”.
In the case of `O=C(Nc1ccc(F)cc1)c1cnc(SCc2cc(OC(F)(F)F)ccc2B(O)O)nc1` [CXCR1/2 inhibitor], the “effect on CXCL5 rescue of macrophage recruitment” value (Raw264.7) is reported as “abrogated the rescue by CXCL5 supplementation”.
`NS(=O)(=O)NCCNc1nonc1C(=NO)Nc1ccc(F)c(Br)c1` [Epacadostat] was tested, and the “survival of mice bearing APC-KO MC38 tumors” value [5] was “did not exhibit anti-tumor effects” and the “survival of mice bearing APC-WT MC38 tumors” value [6] was “did not exhibit anti-tumor effects”.
For `Oc1nc(-c2ccc(C(F)(F)F)cc2)nc2c1CSCC2` [XAV-939], the TDO2 expression [7] was “TDO2 expression was decreased”.
For `Nc1ccccc1C(=O)CC(N)C(=O)O` (centres unmarked) [Kyn, kynurenine], the “effect of Kyn on 680C91-induced cell death” value (APC-KO MC38 cells [3]; 680C91/Kyn co-treatment) was “rescued by Kyn supplementation”, the “effect of Kyn on reduced colony formation after TDO2 and AhR depletion” value (APC-KO MC38 cells [8]) was “rescued by Kyn treatment” and the “cell death in iKAP model system” value (iKAP cell lysates) was “decreased cell death”. For the same compound, the M2 macrophage markers (BMDM [9]) was “M2 macrophage markers increased” and the Gas6 expression (BMDM [10]) was “increased Gas6 expression”.
In the case of “rmGas6: mouse recombinant Gas6, ligand of Axl”, the Axl phosphorylation (Axl) is reported as “activated Axl”, the “cancer cell growth in vitro” value [11] is reported as “promoted cancer cell growth” and the Gas6 expression (BMDM [10]) is reported as “increased Gas6 expression”.
